According to patent publication US20080004306A1, “Compositions and methods for modulating gated ion channels” (PainCeptor Pharma Corporation, priority 2006, published 2008):

How the values were obtained:
hASIC1a [1] = molecular target: T1, hASIC1a (Homo sapiens, UniProt P78348); assay: Two-electrode voltage clamp in Xenopus laevis oocytes expressing gated ion channels (Xo, Example 3); type: cell-based; conditions: for inhibition at 50 µM: read-out: % inh. at 50 μM (Xo)
T1 construct: expressed in transfected cells; host or cells: Xenopus laevis oocytes, nuclear microinjection of an expression vector such as pCDNA3
T1 sequence (P78348 1-528): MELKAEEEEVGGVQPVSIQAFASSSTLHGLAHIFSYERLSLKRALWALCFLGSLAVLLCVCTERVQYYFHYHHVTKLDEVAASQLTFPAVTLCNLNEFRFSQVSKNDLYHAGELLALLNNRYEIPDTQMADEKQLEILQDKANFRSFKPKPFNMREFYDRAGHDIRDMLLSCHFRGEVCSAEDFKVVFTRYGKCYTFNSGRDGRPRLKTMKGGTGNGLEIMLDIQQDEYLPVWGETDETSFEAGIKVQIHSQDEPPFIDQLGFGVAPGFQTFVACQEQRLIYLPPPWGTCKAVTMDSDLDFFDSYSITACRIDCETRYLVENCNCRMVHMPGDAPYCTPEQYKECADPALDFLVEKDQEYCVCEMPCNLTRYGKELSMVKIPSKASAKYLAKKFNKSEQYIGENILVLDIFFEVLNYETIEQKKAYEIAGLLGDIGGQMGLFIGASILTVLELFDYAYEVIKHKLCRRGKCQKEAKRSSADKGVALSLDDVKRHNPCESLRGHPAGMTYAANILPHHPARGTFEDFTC
Experimental: Two-electrode voltage clamp electrophysiological assays in Xenopus laevis oocytes expressing gated ion channels are performed as follows:
Oocytes are surgically removed from adult Xenopus laevis and treated for 2 h at room temperature with 1 mg/ml type I collagenase (Sigma) in Barth's solution under mild agitation. Selected oocytes at stage IV-V are defolliculated manually before nuclear microinjection of 2.5-5 ng of a suitable expression vector, such as pCDNA3, comprising the nucleotide sequence encoding a gated ion channel subunit protein. In such an experiment, the oocytes express homomultimeric proton-gated ion channels on their surface. In an alternate experiment, one, two, three or more vectors comprising the coding sequences for distinct gated ion channel subunits are co-injected in the oocyte nuclei. In the latter case, oocytes express heteromultimeric proton-gated ion channels. […] Once impaled with the microelectrodes, oocytes are continuously superfused at 10-12 ml/min with a modified Ringer's solution containing 97 mM NaCl, 2 mM KCl, 1.8 mM CaCl2, and 10 mM HEPES brought to pH 7.4 with NaOH (Control Ringer). Test Ringer solution is prepared by replacing HEPES with MES and adjusting the pH to the desired acidic value. Compounds of the present invention are prepared in both the Control and Test Ringer solutions and applied to oocytes at room temperature through a computer-controlled switching valve system. […] Similarly, recordings can also be acquired in an automated multichannel oocytes system as the OpusExpress™ (Molecular Devices, Sunnyvale, USA).

hASIC1a [2] = molecular target: T1, hASIC1a; assay: Whole cell patch clamp in HEK293 cells transfected with hASIC1a (Example 2); type: cell-based; conditions: six point dose-response, whole cell patch clamp (FIG. 1B), read-out: IC50, inhibition of acid-induced hASIC1a activity
Experimental: Another example of an in vitro assessment method consists of using mammalian heterologous expression systems, which are known to the skilled in the art, and include a variety of mammalian cell lines such as COS, HEK, e.g., HEK293and/or CHO, cells. Cell lines are transfected with gated ion channel(s) and used to perform electrophysiology as follows:
All experiments are performed at room temperature (20-25° C.) in voltage clamp using conventional whole cell patch clamp methods (Neher, E., et al. (1978) Pfluegers Arch 375:219-228).
The amplifier used is the EPC-9 (HEKA-electronics, Lambrect, Germany) run by a Macintosh G3 computer via an ITC-16 interface. Experimental conditions are set with the Pulse-software accompanying the amplifier. […]
Coverslips with the cells are transferred to a 15 μl experimental chamber mounted on the stage of an inverted microscope (IMT-2, Olympus) supplied with Nomarski optics. […] The cells are held at a holding voltage of −60 mV and at the start of each experiment the current is continuously measured for 45 s to ensure a stable baseline. […] Current amplitudes are measured at the peak of the responses, and effect of the compounds is calculated as the amplitude at compound equilibrium divided by the amplitude of the current evoked by the pulse just before the compound is included. […]

[3] = tested on: thermal hyperalgesia from carrageenan-induced paw inflammation; assay: Carrageenan model, thermal hyperalgesia (Hargreaves' assay); type: in vivo, rat
Experimental: Acute inflammatory hyperalgesia is induced in rats by unilateral injection of […] of a 3% solution of 1-carrageenan into the plantar surface of the left hind paw 2-4 h prior to testing. Thermal nociceptive thresholds are determined according to the method described elsewhere (Hargreaves et al., 1988). Briefly, through the glass surface, a radiant heat source (8 V, 50 W projector bulb) is focused onto the plantar surface of the hind paw. The rat's paw-withdrawal latency to this stimulus is recorded to the nearest 0.1 s. Each latency score is an average of three trials, which are separated by at least 5 min. In all rats, both the injured and uninjured hind paws are similarly tested, allowing direct comparisons between inflamed and non-inflamed paws.

[4] = Xenopus laevis oocytes, two-electrode voltage clamp
[5] = Xenopus laevis oocytes, two-electrode voltage clamp, Table 1, read-out: IC50 (Xo)

| SMILES | inhibition at 50 µM (hASIC1a [1]; [4]) [%] | IC50 (hASIC1a [1]; [5]) [µM] | other results |
| --- | --- | --- | --- |
| CCN1CCc2c(-c3ccccc3)cc3c(c2C1)NC(=O)C3SC (stereo not drawn) [Compound 1] | 25 to 45 |  |  |
| CCN1CCc2c(-c3ccccc3)cc3c(c2C1)NC(=O)C3 [Compound 2] | < 25 |  |  |
| CCN1CCc2c(-c3ccccc3)cc3c(c2C1)NC(=O)C3=CNC [Compound 3] | < 25 |  |  |
| CCN1CCc2c(-c3ccccc3)cc3c(c2C1)NC(=O)C3=CNCCO [Compound 4] | < 25 |  |  |
| CCN1CCc2c(-c3ccccc3)cc3c(c2C1)NC(=O)C3=CN [Compound 5] | > 50 |  | IC50 (hASIC1a [1]; three point dose-response, acid-induced hASIC1a currents in Xenopus laevis oocytes (FIG. 1A), read-out: IC50, half maximal inhibition of the acid-evoked response in hASIC1a): 10 µM; IC50 (hASIC1a [2]): 15 µM; effect on thermal hyperalgesia ([3]; 75 mg/kg s.c., given 30 min prior to carrageenan, 2-4 hours post-carrageenan, versus control paw level): completely reversed; ED50 ([3]; Rattus norvegicus, sc, 30 min prior to carrageenan, tested 2, 3 and 4 h post carrageenan): ~50 mg/kg |
| CCN1CCc2c(-c3ccccc3)cc3c(N)n[nH]c3c2C1 [Compound 6] |  | > 50 |  |
| CCN1CCc2c(-c3cc(F)ccc3OC)cc3cc[nH]c3c2C1 [Compound 7] |  | > 50 |  |
| CCN1CCc2c(-c3cc(F)ccc3OC)cc3c(C=O)c[nH]c3c2C1 [Compound 8] |  | > 50 |  |
| CCN1CCc2c(-c3ccccc3)cc3cc[nH]c3c2C1 [Compound 9] |  | > 50 |  |
| CCN1CCc2c(-c3ccccc3)cc3c(C=O)c[nH]c3c2C1 [Compound 10] |  | > 50 |  |
| CCN1CCc2c(-c3ccccc3)cc3c(C(N)=O)c[nH]c3c2C1 [Compound 11] |  | > 50 |  |
